In PubChem BioAssay AID2060611 (Molecular Pharmacology Branch, DTP, NCI, 2025):
pIC50: −log10 of the molar value. Where “and” joins values, the source holds several entries; their conditions need not be identical. Equal values may be shown once. Blank lines part the entries; values can stand above or below the compound they belong to.

Tested on: 628569-122-R-J1-PDC complex spheroid viability
Assay: Anticancer human tumor 628569-122-R-J1-PDC patient-derived head and neck squamous carcinoma cell line growth inhibition [CLK]
Conditions: for viability, T/C: stronger effect = lower value
In short: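 Multi-cell-type spheroids combined patient-derived tumor cells with HUVEC endothelial cells and human mesenchymal stem cells. Paired agents were dosed in half-log steps down from about clinical Cmax, or from 10 microM where Cmax was unknown.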

[1] = curve of first compound, second compound 0.0316 µM
[2] = curve of first compound, second compound 0.1 µM
[3] = curve of first compound, second compound 0.316 µM
[4] = curve of first compound, second compound 1 µM
[5] = curve of first compound, second compound 3.16 µM
[6] = curve of first compound, second compound 10 µM
[7] = second compound 0.0316 µM, first compound 0.0316 µM
[8] = second compound 0.0316 µM, first compound 0.1 µM
[9] = second compound 0.0316 µM, first compound 0.316 µM
[10] = second compound 0.0316 µM, first compound 1 µM
[11] = second compound 0.0316 µM, first compound 3.16 µM
[12] = second compound 0.0316 µM, first compound 10 µM
[13] = second compound 0.1 µM, first compound 0.0316 µM
[14] = second compound 0.1 µM, first compound 0.1 µM
[15] = second compound 0.1 µM, first compound 0.316 µM
[16] = second compound 0.1 µM, first compound 1 µM
[17] = second compound 0.1 µM, first compound 3.16 µM
[18] = second compound 0.1 µM, first compound 10 µM
[19] = second compound 0.316 µM, first compound 0.0316 µM
[20] = second compound 0.316 µM, first compound 0.1 µM
[21] = second compound 0.316 µM, first compound 0.316 µM
[22] = second compound 0.316 µM, first compound 1 µM
[23] = second compound 0.316 µM, first compound 3.16 µM
[24] = second compound 0.316 µM, first compound 10 µM
[25] = second compound 1 µM, first compound 0.0316 µM
[26] = second compound 1 µM, first compound 0.1 µM
[27] = second compound 1 µM, first compound 0.316 µM
[28] = second compound 1 µM, first compound 1 µM
[29] = second compound 1 µM, first compound 3.16 µM
[30] = second compound 1 µM, first compound 10 µM
[31] = second compound 3.16 µM, first compound 0.0316 µM
[32] = second compound 3.16 µM, first compound 0.1 µM
[33] = second compound 3.16 µM, first compound 0.316 µM
[34] = second compound 3.16 µM, first compound 1 µM
[35] = second compound 3.16 µM, first compound 3.16 µM
[36] = second compound 3.16 µM, first compound 10 µM
[37] = second compound 10 µM, first compound 0.0316 µM
[38] = second compound 10 µM, first compound 0.1 µM
[39] = second compound 10 µM, first compound 0.316 µM
[40] = second compound 10 µM, first compound 1 µM
[41] = second compound 10 µM, first compound 3.16 µM
[42] = second compound 10 µM, first compound 10 µM
[43] = second compound 0.0316 µM, first compound 0.00316 µM
[44] = second compound 0.0316 µM, first compound 0.01 µM
[45] = second compound 0.1 µM, first compound 0.00316 µM
[46] = second compound 0.1 µM, first compound 0.01 µM
[47] = second compound 0.316 µM, first compound 0.00316 µM
[48] = second compound 0.316 µM, first compound 0.01 µM
[49] = second compound 1 µM, first compound 0.00316 µM
[50] = second compound 1 µM, first compound 0.01 µM
[51] = second compound 3.16 µM, first compound 0.00316 µM
[52] = second compound 3.16 µM, first compound 0.01 µM
[53] = second compound 10 µM, first compound 0.00316 µM
[54] = second compound 10 µM, first compound 0.01 µM
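Further: spheroids exposed to agents for seven days before readout.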
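Wherever viability, T/C is given: 100% = DMSO vehicle control viability.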

Structure (SMILES): CC(CO)NC(=O)c1cc(-c2ccc(Cl)cc2)nn(-c2cnn(C)c2)c1=O (stereo not drawn) + CN1CCN(c2cc(C(=O)Nc3cc4cc(-c5cnn(C)c5)ccc4cn3)ccn2)CC1
pIC50 [1]: < 5.00
pIC50 [2]: < 5.00
pIC50 [3]: < 5.00
pIC50 [4]: > 7.50
pIC50 [5]: > 7.50
pIC50 [6]: > 7.50
viability, T/C [7]: 141%
viability, T/C [8]: 195%
viability, T/C [9]: 196%
viability, T/C [10]: 216%
viability, T/C [11]: 205%
viability, T/C [12]: 173%
viability, T/C [13]: 113%
viability, T/C [14]: 142%
viability, T/C [15]: 151%
viability, T/C [16]: 152%
viability, T/C [17]: 152%
viability, T/C [18]: 148%
viability, T/C [19]: 62.6%
viability, T/C [20]: 63.5%
viability, T/C [21]: 68.9%
viability, T/C [22]: 77.1%
viability, T/C [23]: 73%
viability, T/C [24]: 76.2%
viability, T/C [25]: 8.6%
viability, T/C [26]: 5.35%
viability, T/C [27]: 7.74%
viability, T/C [28]: 6.71%
viability, T/C [29]: 4.91%
viability, T/C [30]: 5.72%
viability, T/C [31]: 7.85%
viability, T/C [32]: 5.72%
viability, T/C [33]: 7.76%
viability, T/C [34]: 7.17%
viability, T/C [35]: 7.12%
viability, T/C [36]: 7.82%
viability, T/C [37]: 4.35%
viability, T/C [38]: 2.99%
viability, T/C [39]: 3.66%
viability, T/C [40]: 2.79%
viability, T/C [41]: 4.67%
viability, T/C [42]: 2.07%

pIC50 [1]: < 6.00
pIC50 [2]: < 6.00
pIC50 [3]: < 6.00
pIC50 [4]: > 8.50
pIC50 [5]: > 8.50
pIC50 [6]: > 8.50
Structure (SMILES): CCN1CCN(Cc2ccc(Nc3ncc(F)c(-c4cc(F)c5nc(C)n(C(C)C)c5c4)n3)nc2)CC1 + CNC(=O)c1ccc(Nc2nc(OC3CCCC3)c3c(-c4ccc5nc(C)oc5c4)c[nH]c3n2)c(OC)c1
viability, T/C [43]: 81.5%
viability, T/C [44]: 94.4%
viability, T/C [7]: 76.3%
viability, T/C [8]: 67.7%
viability, T/C [9]: 98.7%
viability, T/C [10]: 155%
viability, T/C [45]: 58.5%
viability, T/C [46]: 64%
viability, T/C [13]: 56.4%
viability, T/C [14]: 61.7%
viability, T/C [15]: 108%
viability, T/C [16]: 137%
viability, T/C [47]: 57.6%
viability, T/C [48]: 55.6%
viability, T/C [19]: 51.7%
viability, T/C [20]: 61%
viability, T/C [21]: 95.3%
viability, T/C [22]: 135%
viability, T/C [49]: 45.5%
viability, T/C [50]: 49.2%
viability, T/C [25]: 50.7%
viability, T/C [26]: 63%
viability, T/C [27]: 92.6%
viability, T/C [28]: 122%
viability, T/C [51]: 48.2%
viability, T/C [52]: 55.7%
viability, T/C [31]: 57.1%
viability, T/C [32]: 49.6%
viability, T/C [33]: 82.9%
viability, T/C [34]: 97.9%
viability, T/C [53]: 46.1%
viability, T/C [54]: 38.8%
viability, T/C [37]: 46.1%
viability, T/C [38]: 49.3%
viability, T/C [39]: 76.4%
viability, T/C [40]: 99.2%

pIC50 (curve of compound): < 5.00 and 5.04
Structure (SMILES): Nc1ccccc1NC(=O)c1ccc(CNC(=O)OCc2cccnc2)cc1
viability, T/C (compound 0.0316 µM): 91% and 99.9%
viability, T/C (compound 0.1 µM): 87.9% and 94.8%
viability, T/C (compound 0.316 µM): 123% and 125%
viability, T/C (compound 1 µM): 151% and 140%
viability, T/C (compound 3.16 µM): 135% and 121%
viability, T/C (compound 10 µM): 52.9% and 43.9%

Structure (SMILES): CNC(=O)c1ccc(Nc2nc(OC3CCCC3)c3c(-c4ccc5nc(C)oc5c4)c[nH]c3n2)c(OC)c1
viability, T/C (compound 0.0316 µM): 95.7% [middle of 12 runs]
viability, T/C (compound 0.1 µM): 60.6% [middle of 12 runs]
viability, T/C (compound 0.316 µM): 54.9% [middle of 12 runs]
viability, T/C (compound 1 µM): 44.6% [middle of 12 runs]
viability, T/C (compound 3.16 µM): 40.7% [middle of 12 runs]
viability, T/C (compound 10 µM): 41.4% [middle of 12 runs]

pIC50 [1]: < 5.00
pIC50 [2]: < 5.00
pIC50 [3]: 5.87
pIC50 [4]: > 7.50
pIC50 [5]: > 7.50
pIC50 [6]: > 7.50
Structure (SMILES): C#Cc1c(F)ccc2cc(O)cc(-c3ncc4c(N5CC6CCC(C5)N6)nc(OCC56CCCN5CC(F)C6)nc4c3F)c12 (stereo not drawn) + CNC(=O)c1ccc(Nc2nc(OC3CCCC3)c3c(-c4ccc5nc(C)oc5c4)c[nH]c3n2)c(OC)c1
viability, T/C [7]: 103%
viability, T/C [8]: 94.2%
viability, T/C [9]: 84.8%
viability, T/C [10]: 100%
viability, T/C [11]: 98.7%
viability, T/C [12]: 98.8%
viability, T/C [13]: 71.2%
viability, T/C [14]: 63.2%
viability, T/C [15]: 51.5%
viability, T/C [16]: 53.5%
viability, T/C [17]: 61.7%
viability, T/C [18]: 59.3%
viability, T/C [19]: 55.8%
viability, T/C [20]: 52.9%
viability, T/C [21]: 50.2%
viability, T/C [22]: 53.4%
viability, T/C [23]: 47.5%
viability, T/C [24]: 44.1%
viability, T/C [25]: 46%
viability, T/C [26]: 45.6%
viability, T/C [27]: 47.4%
viability, T/C [28]: 50.9%
viability, T/C [29]: 44.9%
viability, T/C [30]: 52.3%
viability, T/C [31]: 51.6%
viability, T/C [32]: 43.1%
viability, T/C [33]: 47.5%
viability, T/C [34]: 39.2%
viability, T/C [35]: 40.3%
viability, T/C [36]: 28.5%
viability, T/C [37]: 49.4%
viability, T/C [38]: 42.4%
viability, T/C [39]: 41.9%
viability, T/C [40]: 41.4%
viability, T/C [41]: 47.5%
viability, T/C [42]: 29.7%

pIC50 (curve of compound): 8.35 and 8.32
Structure (SMILES): CC(C)CC(NC(=O)C(Cc1ccccc1)NC(=O)c1cnccn1)B(O)O (stereo not drawn)
viability, T/C (compound 0.000949 µM): 86.3% and 91.7%
viability, T/C (compound 0.003 µM): 68% and 73.5%
viability, T/C (compound 0.00949 µM): 16.2% and 14.8%
viability, T/C (compound 0.03 µM): 8.01% and 3.1%
viability, T/C (compound 0.0949 µM): 7.3% and 7.41%
viability, T/C (compound 0.3 µM): 6.04% and 11.3%

Structure (SMILES): CCN1CCN(Cc2ccc(Nc3ncc(F)c(-c4cc(F)c5nc(C)n(C(C)C)c5c4)n3)nc2)CC1 + CN1CCN(c2cc(C(=O)Nc3cc4cc(-c5cnn(C)c5)ccc4cn3)ccn2)CC1
pIC50 [1]: < 6.00
pIC50 [2]: < 6.00
pIC50 [3]: > 8.50
pIC50 [4]: > 8.50
pIC50 [5]: > 8.50
pIC50 [6]: > 8.50
viability, T/C [43]: 91.4%
viability, T/C [44]: 85.2%
viability, T/C [7]: 73.7%
viability, T/C [8]: 79.6%
viability, T/C [9]: 132%
viability, T/C [10]: 181%
viability, T/C [45]: 72.8%
viability, T/C [46]: 55.6%
viability, T/C [13]: 64.6%
viability, T/C [14]: 75.3%
viability, T/C [15]: 96.8%
viability, T/C [16]: 157%
viability, T/C [47]: 42.6%
viability, T/C [48]: 43.2%
viability, T/C [19]: 48.1%
viability, T/C [20]: 53.1%
viability, T/C [21]: 81.8%
viability, T/C [22]: 88.4%
viability, T/C [49]: 10.7%
viability, T/C [50]: 5.74%
viability, T/C [25]: 6.1%
viability, T/C [26]: 7.58%
viability, T/C [27]: 12%
viability, T/C [28]: 12.2%
viability, T/C [51]: 9.03%
viability, T/C [52]: 6.91%
viability, T/C [31]: 7.06%
viability, T/C [32]: 8.11%
viability, T/C [33]: 10.9%
viability, T/C [34]: 11.1%
viability, T/C [53]: 9.28%
viability, T/C [54]: 1.85%
viability, T/C [37]: 3.61%
viability, T/C [38]: 4.38%
viability, T/C [39]: 8.89%
viability, T/C [40]: 4.27%
